For 138 compounds, logP results are on record in the OPERA property sets (Mansouri et al. 2018).

As a reminder, the logP is a log measure of how a compound divides between an organic and an aqueous phase. Low readings indicate lower lipophilicity, high ones higher lipophilicity. Turning to `Nc1ccnc2ccccc12`, the logP is 1.63.

The compound `CCCCN` had a logP of 0.97.

In the case of `Cc1cccc(S(N)(=O)=O)c1`, the logP stood at 0.85.

`Oc1ccc(O)c(Cl)c1` came in with a logP of 1.4.

`CCCNC(=O)c1cccnc1` registered a logP of 0.66.

Regarding `O=C1CCN(c2ccccc2)N1`, the logP came to 0.89.

Regarding `CC(C)c1ccc(O)c(=O)cc1`, the logP stood at 1.89.

Consider `COc1ccc(C(=O)O)cc1`, for which the logP is 1.96.

Compound `COCCN(C)c1ccc(Nn2c(C)ccc2C)nn1` yielded a logP of 2.16.

`CC(=O)Nc1ccc(OC(C)=O)cc1` displayed a logP of 1.05.

`Cc1ccccc1OCC(=O)O` gave a logP of 1.98.

As to `NCCc1ccncc1`, the logP was -0.01.

Compound `Cc1ccccc1N` yielded a logP of 1.32.

Consider `Cc1ccc([N+](=O)[O-])cc1`, for which the logP was 2.37.

As for `O=[N+]([O-])C=Cc1ccccc1`, the logP is 2.11.

For the compound `N[C@@H](CS)C(=O)O`, the logP is -2.49.

Take `CCCCSCS(=O)CC(C)NC(=O)C=Cc1c(C)[nH]c(=O)[nH]c1=O` (stereo not drawn): the logP is 0.82.

`CCNC(=O)c1ccoc1` displayed a logP of 0.72.

On to `CCC(=O)CC`, for which the logP came out at 0.99.

Compound `Fc1cccnc1` came in with a logP of 0.77.

In turn, `CC(=O)c1cccnc1` gave a logP of 0.43.

Take `C=CBr`: the logP amounted to 1.57.

`Cc1cncc(C)c1` yielded a logP of 1.78.

`CC(=O)Nc1ccc(OCC(O)CNC(C)C)cc1` (stereo not drawn) displayed a logP of 0.79.

The compound `CCOc1cc(N)ccc1C(=O)O` returned a logP of 0.99.

The compound `COC(=O)C(Cc1ccc(O)cc1)NC(C)=O` (stereo not drawn) registered a logP of 0.33.

The compound `CC1CCCCC1` showed a logP of 3.61.

Consider `COC(=O)CCC(=O)OCC(=O)C1(O)CCC2C3CCC4=CC(=O)CCC4(C)C3C(O)CC21C` (stereo not drawn), for which the logP came out at 2.6.

In turn, `CNC(=O)Oc1cccc2c1OC(C)(C)O2` had a logP of 1.7.

Consider `CCOC(=O)C=Cc1ccccc1`, for which the logP is 2.99.

As to `O=C(NC(CO)C(O)c1ccc([N+](=O)[O-])cc1)C(Br)Br` (stereo not drawn), the logP was 1.36.

`CCOc1cccc(OC(=O)NC)c1` registered a logP of 1.75.

`O=[N+]([O-])c1ccco1` yielded a logP of 0.66.

`COc1ccccc1C(=O)c1ccncc1` returned a logP of 1.86.

With `CNc1nc2c3cccnc3ccc2n1C`, the logP amounted to 1.82.

As to `O=C(NN1CCCCCC1)NS(=O)(=O)c1ccc(Cl)cc1`, the logP amounted to 1.64.

For the compound `Nc1ccc(C(=O)Oc2cccc(Cl)c2)c(O)c1`, the logP came to 3.9.

Turning to `CN(C)O`, the logP is -1.15.

`O=C(NC(CO)C(O)c1ccc(Br)cc1)C(Cl)Cl` (stereo not drawn) had a logP of 1.87.

The compound `CC(=O)Nc1ccc(I)cc1` showed a logP of 2.71.

Consider `CN1C(=O)SC(=Cc2ccc([N+](=O)[O-])o2)C1=O`, for which the logP turned out to be 1.78.

Compound `CCCCCCOC(=O)c1ccc(O)cc1` returned a logP of 4.35.

The compound `Cc1c[nH]c2ccccc12` displayed a logP of 2.6.

For `O=C(NCC(O)CO)c1c(I)c(C(=O)NCC(O)CO)c(I)c(N(CCO)C(=O)CO)c1I` (stereo not drawn), the logP is -2.98.

On to `NCc1ccc([N+](=O)[O-])cc1`, for which the logP was 1.06.

As to `CCC(CC)C(=O)NC(N)=O`, the logP was determined as 0.91.

As to `CC(=O)Nc1ccncc1`, the logP worked out at 0.5.

For the compound `C=C(Br)CC1(C(C)C)C(=O)NC(=O)NC1=O`, the logP turned out to be 1.47.

In the case of `O=C1c2ccccc2C(=O)N1CCCCBr`, the logP is 2.96.

As to `CCC(=O)OC1(C(=O)CCl)C(C)CC2C3CCC4=CC(=O)C=CC4(C)C3(Cl)C(O)CC21C` (stereo not drawn), the logP worked out at 3.28.

As for `O=C(O)COc1ccc(C2CCCCC2)cc1`, the logP stood at 3.79.

The compound `CCOc1ccc([N+](=O)[O-])cc1` showed a logP of 2.53.

Compound `CCC1(c2ccccc2)C(=O)NC(=O)NC1=O` had a logP of 1.47.

Compound `O=[N+]([O-])c1cccc(C(F)(F)F)c1` gave a logP of 2.62.

Regarding `CCCNc1ccccc1`, the logP was 2.45.

Take `C[C@@H]1C[C@@H]([C@H](O)CC2CC(=O)NC(=O)C2)C(=O)[C@@H](C)C1`: the logP was 0.55.

The compound `COc1cc(S(C)=O)ccc1-c1nc2cnncc2[nH]1` (stereo not drawn) registered a logP of 0.39.

`COC(=O)C1=CCCN(C)C1` displayed a logP of 0.35.

In turn, `C=C(C)C(=O)OCCO` yielded a logP of 0.47.

Turning to `Cc1ncc([N+](=O)[O-])n1CCNC(=O)OC(C)C`, the log partition coefficient (logP) was found to be 0.88.

Consider `O=C(O)Cc1ccc(O)cc1`, for which the logP was 0.75.

With `FC(F)(F)C(Cl)Br` (stereo not drawn), the logP stood at 2.3.

For the compound `COc1ccccc1OC(=O)c1ccc(N)cc1O`, the logP worked out at 2.88.

`CC(=O)OC1CC(OC2C(O)CC(OC3C(C)OC(OC4CCC5(C)C(CCC6C5CC(O)C5(C)C(C7=CC(=O)OC7)CCC65O)C4)CC3OC(C)=O)OC2C)OC(C)C1O` (stereo not drawn) showed a logP of 2.45.

Compound `CCOc1cccc(Cl)n1` registered a logP of 2.55.

`CC(=O)Oc1ccccc1C(=O)O` came in with a logP of 1.19.

`CCCCOC(=O)c1cc(O)c(O)c(O)c1` displayed a logP of 2.41.

In turn, `S=C=NCCc1ccccc1` registered a logP of 3.47.

Regarding `O=[N+]([O-])c1ccc(-c2ccccc2)cc1`, the logP stood at 3.82.

As to `O=C(NC(CO)C(O)c1ccc(-c2ccccc2)cc1)C(Cl)Cl` (stereo not drawn), the logP is 2.86.

Consider `N#Cc1cccc(N)c1`, for which the logP was 1.07.

For `CCCC(NC(C)=O)C(N)=O` (stereo not drawn), the logP is -0.45.

With `O=C(NCc1ccccc1)c1ccco1`, the logP amounted to 1.81.

`O=C(O)CCc1c[nH]c2ccccc12` displayed a logP of 1.75.

In turn, `O=C(O)CSc1c[nH]c2ccccc12` registered a logP of 1.78.

`c1ccc2[nH]ncc2c1`: the logP came out at 1.77.

For the compound `O=[N+]([O-])C=Cc1cccs1`, the logP was 1.96.

Consider `C=C(CC(Cl)(Cl)Cl)c1ccccc1`, for which the logP came out at 4.56.

For `Nc1ccc(S(=O)(=O)Nc2cnc3ccccc3n2)cc1`, the logP turned out to be 1.68.

`Nc1nc(=O)c2ccccc2o1` came in with a logP of 0.27.

In the case of `Nc1ccn(C2CC(O)C(CO)O2)c(=O)n1` (stereo not drawn), the logP is -1.77.

Compound `CC(=O)c1ccc(OCC(=O)O)cc1` displayed a logP of 0.87.

As to `NS(=O)(=O)c1cc2c(cc1Cl)NC(CC1CCCC1)NS2(=O)=O` (stereo not drawn), the logP came to 1.27.

Consider `c1ccc2c(c1)OCO2`, for which the logP worked out at 2.08.

In turn, `CNC(=O)Oc1ccc(Cl)c(Cl)c1` returned a logP of 2.8.

The compound `OCCN1CCN(C2CC(c3ccc(F)cc3)c3ccc(C(F)(F)F)cc32)CC1` (stereo not drawn) yielded a logP of 4.39.

For `Nc1nc(C=Cc2ccc([N+](=O)[O-])o2)no1`, the lipophilicity (logP) is 1.3.

`CCCCCCOC1OC(CO)C(O)C(O)C1O` (stereo not drawn) came in with a logP of 0.16.

As for `CC(C)(Oc1ccc(Cl)cc1)C(=O)O`, the logP was determined as 2.57.

Turning to `CC(C)(C)C#N`, the logP was determined as 1.08.

Regarding `NC(=O)CI`, the logP is -0.19.

Take `C[C@@H]1C[C@H]2C3C[C@H](F)C4=CC(=O)C=CC4(C)[C@@]3(F)[C@@H](O)CC2(C)[C@@]1(O)C(=O)COC(=O)C(C)(C)C` (stereo partly drawn): the logP is 3.86.

Compound `COc1cc(NS(=O)(=O)c2ccc(N)cc2)nc(C)n1` returned a logP of 0.61.

Consider `CCC(C)=O`, for which the logP is 0.29.

Regarding `CCCCN1CCCCC1C(=O)Nc1c(C)cccc1C` (stereo not drawn), the logP is 3.41.

For `CCCS(=O)(=O)CCC`, the logP came out at 0.39.

For `COc1ccc(OC(=O)c2ccc(N)cc2O)cc1`, the logP was determined as 3.07.

Regarding `N#CCC(=O)O`, the logP was -0.76.

`COP(=O)(OC)SCn1nnc2ccccc2c1=O` had a logP of 0.78.

Regarding `CC(=O)Nc1cc(C(=O)NN)ccn1`, the logP is -1.25.

In turn, `C=C1C(=O)OC2CC(C)C3C=CC(=O)C3(C)C(O)C12` (stereo not drawn) yielded a logP of 0.36.

For the compound `COc1ccccc1C(=O)O`, the logP was found to be 1.59.

In the case of `CC(=O)NC(=O)NC(C)=O`, the logP is -0.68.

`COc1ccc(CC(C)N)cc1` (stereo not drawn) had a logP of 1.77.

Consider `COC(=O)CC(=O)OC`, for which the logP was -0.05.

On to `Cc1cccc(O)c1`, for which the logP was 1.96.

`O=C(O)C1CC1`: the logP worked out at 0.63.

Regarding `CNC(=O)NC`, the logP was -0.49.

For `CNP(=O)(OC)Oc1ccc(C(C)(C)C)cc1Cl` (stereo not drawn), the logP was found to be 3.42.

Consider `C[N+](C)(C)c1ccccc1.[I-]`, for which the logP is -2.74.

In the case of `O=C(O)COc1ccccc1I`, the logP came to 2.33.

On to `CCC(c1ccccc1)c1c(O)c2ccccc2oc1=O` (stereo not drawn), for which the logP turned out to be 3.62.

In turn, `O=C(CN1CCCCC1)Nc1cccc(F)c1` gave a logP of 2.85.

`Cc1cc(O)c(C(C)C)cc1Cl` registered a logP of 3.92.

The compound `CCOc1cc(C(=O)NN)ccn1` showed a logP of 0.48.

As to `NNC(=O)c1cccc(Br)c1`, the logP was found to be 1.26.

`Cn1c(=O)ccc2ccccc21` registered a logP of 1.45.

`NS(=O)(=O)NCCc1ccccc1` gave a logP of 0.81.

As to `CC1OC(OC2CCC3(CO)C4CCC5(C)C(C6=CC(=O)OC6)CCC5(O)C4CCC3(O)C2)C(O)C(O)C1O` (stereo not drawn), the logP was -0.62.

`Cc1ccc(Cl)cc1C` gave a lipophilicity (logP) of 3.82.

For `CC/C(=C(/CC)c1ccc(O)cc1)c1ccc(O)cc1`, the logP came to 5.07.

On to `CN(C)C(=S)NN`, for which the logP is -0.3.

Consider `c1cncnc1`, for which the logP is -0.4.

In the case of `NC(=O)Nc1cccc(Br)c1`, the logP was 2.08.

The compound `Nc1ccc(C(=O)Oc2ccc(Cl)cc2)c(O)c1` showed a logP of 3.6.

`O=Cc1ccc([N+](=O)[O-])o1` had a logP of 1.01.

On to `S=C(NN=Cc1ccco1)Nc1ccccc1`, for which the logP worked out at 3.13.

Take `O=[N+]([O-])c1cc(Br)c(O)c(Br)c1`: the logP was 3.57.

`COC(=O)c1ccccc1OC(C)=O` registered a logP of 1.46.

`COC(=O)c1cc(O)c(O)c(O)c1`: the logP was determined as 0.86.

With `O=Cc1cccnc1`, the logP stood at 0.29.

Consider `CC(=O)CCC(=O)O`, for which the logP is -0.49.

As to `CCC(C)CC(=O)OCC1CCC(n2cnc3c(=O)[nH]cnc32)O1` (stereo not drawn), the logP is 1.

Consider `CN(C)S(=O)(=O)c1ccc(N)cc1`, for which the logP was found to be 0.67.

As to `O=C(O)c1ccc(O)cc1`, the logP stood at 1.58.

`CCCCNc1nc(NC(C)C)nc(SC(F)F)n1`: the logP was determined as 4.75.

As for `CCCOP(OCCC)OCCC`, the logP is 2.26.

`CC(C)N1CCOC(c2ccccc2)C1` (stereo not drawn) displayed a logP of 2.3.
